{"source": "patent US10561712B2", "about": "“Treatment of cancer and inhibition of metastasis using hemoglobin beta subunit” (UNIVERSITY OF MARYLAND, BALTIMORE, priority 2014, dated 2020)", "key": {"[1]": {"tested_on": "MicroNB cells (human neuroblastoma lung micrometastatic variant, MHH-NB11)", "assay": "MTS-based viability assay, MicroNB cells", "assay_type": "cell-based", "settings": "72 hr incubation, versus control media", "description": "(§1) The human neuroblastoma lung micrometastatic (MicroNB) and macrometastatic (MacroNB) variants were generated using a mouse model for human neuroblastoma metastasis (Nevo et al., 2008) from the parental cell lines MHH-NB11 (Pietsch et al., 1988) and SH-SY5Y (Biedler et al., 1978) as detailed here (Edry Botzer et al., 2011), and were maintained in culture as previously described (Nevo et al., 2008). The MicroNB and MacroNB variants were previously designated DisNB and MetNB, respectively (Edry Botzer et al., 2011). Authentication of MicroNB and MacroNB cells was performed by short tandem repeat analysis of DNA using the Type-it Microsatellite PCR Kit (Qiagen, Valencia, Calif.), for the genes published by the American Type Culture Collection (ATCC) (Manassas, Va.). The parental cell line MHH-NB11 was kindly provided by Dr. T. Pietsch (Department of Neuropathology, University of Bonn Medical Center, Bonn, Germany).\n(§2) Neuroblastoma cells were seeded (3×10^4 per well) in a 96-well flat-bottomed tissue culture plate. After an incubation of 24 hr, cells were washed and incubated with the relevant factors (detailed in the following sections) diluted in starvation medium (RPMI-1640 containing 5% bovine serum albumin (BSA); Biological Industries, Kibbutz Beit Haemek, Israel; Sigma-Aldrich). Cell viability under normal conditions (starvation medium containing BSA) or after incubation with the relevant factors was monitored after 72 hr using an XTT (XTT cell proliferation kit; Biological Industries) or MTS-based (CellTiter 96® AQueous One Solution Cell Proliferation Assay; Promega) viability assays according to manufacturer instructions. Cells were also counted using the trypan-blue exclusion assay to verify the results obtained by XTT and MTS-based viability assays.\nCircular dichroism analysis of human hemoglobin (HB), hemoglobin subunit alpha (HBA) and subunit beta (HBB) indicated a helical structure for all three proteins (FIG. 3C). […] Neuroblastoma cells were seeded (3×10^4 per well) in a 96 well flat-bottomed tissue culture plate. After 24 hr of incubation cells were washed and incubated with human HBB dissolved in starvation medium (RPMI 5% BSA) to the indicated concentrations. Cell viability under normal conditions (starvation medium) or after incubation with human HBB was monitored after an incubation of 72 hr using an MTS-based viability assay (CellTiter 96® AQueous One Solution Cell Proliferation Assay, Promega) according to the manufacturer instructions. Data are means of three independent experiments±SD. Significance was evaluated using Student's t-test for each variant incubated with human HBB compared to incubation with control media (con)."}, "[2]": {"tested_on": "MicroNB cells inoculated to the adrenal gland", "assay": "Orthotopic MicroNB neuroblastoma model, HBB11p i.v. or inhaled versus PBS (Example 7)", "assay_type": "in vivo, athymic nude mice", "settings": "for size of local tumors versus PBS-treated mice: FIG. 7B, 7C", "method": "(§3) An orthotopic inoculation to the adrenal gland of athymic nude mice was performed with either 50 μl of PBSX1 supplemented with 5% BSA, or with 1×10^6 MicroNB cells (generated as described previously (Edry Botzer et al., 2011)) suspended in 50 μl of PBSX1 supplemented with 5% BSA. The intra-adrenal inoculation was performed as detailed here (Nevo et al., 2008). In short, anesthesia was induced by ketamine (100 mg/kg body weight) and 2% xylazine (10 mg/kg body weight) administered intraperitoneally. Tumor cells (1×10^6/50 μl) or PBSX1 5% BSA (50 μl) were injected orthotopically into the left adrenal gland of nude mice.\n(§4) The development of local tumors in the adrenal gland was monitored and measured weekly with an external digital caliper. The tumor volume in mm^3 was calculated by the ellipsoid volume calculation formula: Volume=[…] (Tomayko and Reynolds, 1989). At the end of the experiments, local adrenal tumors were weighed.\n(§5) For examining the presence of micrometastatic cells in the lungs and bone marrow of mice, organs were harvested at the end of the experiment, and immediately snap frozen in dry ice. RNA was isolated from frozen tissues and used for the generation of first-strand cDNA using an M-MLV Reverse Transcriptase (See below, “RNA preparation and Reverse Transcription Polymerase Chain Reaction”). Quantification of human cells in mouse organs was determined by quantitative real-time PCR (qRT-PCR) assays.\n(§6) Mice were orthotopically inoculated with MicroNB cells to the adrenal gland to generate local adrenal tumors and lung and bone marrow micrometastasis (see “Orthotopic inoculation of tumor cells”). Fourteen days post tumor cell inoculation mice were treated either intravenously or intranasally with 1 mg/kg (0.02 mg/mouse) of the short inhibitory human HBB peptide, Metox, once a week for 8 weeks.\n(§7) For intranasal administration of Metox, the lyophilized peptide was dissolved prior to each administration in Dimethyl Sulfoxide (DMSO) (Sigma-Aldrich) to a concentration of 0.013 mg/μl, and then diluted in sterile PBSX1 to a concentration of 0.4 μg/μl. The dissolved peptide was filtered (0.2 μm) and mice were forced to inhale 50 μl of Metox (0.02 mg/mouse). Control group was forced to inhale 50 μl of a control scrambled peptide, scrambled-Metox (see “Solid-phase synthesis of Metox and scrambled-Metox peptides”).\nTwenty four mice were orthotopically inoculated to the adrenal gland with MicroNB cells. Two weeks post inoculation, mice were either intravenously (IV) injected with HBB11p or PBS, or forced to inhale a droplet of soluble HBB11p, once a week for 8 weeks (FIG. 7A). Mice were monitored weekly for tumor volume. At the end of the experiment, local tumors were weighed and organs were harvested and examined for human neuroblastoma cells and for HBB2 expression using real time PCR (FIG. 7A)."}, "[3]": {"tested_on": "MicroNB cells inoculated to the adrenal gland", "assay": "Orthotopic MicroNB neuroblastoma model, intranasal Metox versus scrambled-Metox (Example 8)", "assay_type": "in vivo, athymic nude mice", "settings": "intranasal 1 mg/kg once a week for 8 weeks", "method": "as §3, §4, §5, §6, §7\nIn an experiment similar to that described in Example 7, athymic nude mice were orthotopically inoculated with MicroNB cells to the adrenal gland. […] Mice were monitored for tumor volume on a weekly basis."}, "[4]": {"tested_on": "MacroNB cells (human neuroblastoma lung macrometastatic variant)", "assay": "MTS-based viability assay, MacroNB cells", "assay_type": "cell-based", "settings": "72 hr incubation, versus control media", "description": "as §1\nas §2, with “After an incubation of 24 hr, cells were washed and incubated with the relevant factors (detailed in the following sections) diluted in starvation medium (RPMI-1640 containing 5% bovine serum albumin (BSA); Biological Industries, Kibbutz Beit Haemek, Israel; Sigma-Aldrich).” left out\nCircular dichroism analysis of human hemoglobin (HB), hemoglobin subunit alpha (HBA) and subunit beta (HBB) indicated a helical structure for all three proteins (FIG. 3C). […] Cell viability under normal conditions (starvation medium) or after incubation with human HBB was monitored after an incubation of 72 hr using an MTS-based viability assay (CellTiter 96® AQueous One Solution Cell Proliferation Assay, Promega) according to the manufacturer instructions. […] Significance was evaluated using Student's t-test for each variant incubated with human HBB compared to incubation with control media (con)."}, "[5]": {"tested_on": "neuroblastoma cells", "assay": "Viability of neuroblastoma cells with N- and C-terminal CNBr fragments of HBB", "assay_type": "cell-based, human", "settings": "MTS-based proliferation assay and trypan blue exclusion; 72 hr; FIG. 5B", "method": "as §2\nHuman HBB was incubated at a concentration of 2 mg/ml with 50 mg/ml CNBr (Sigma-Aldrich) in 5% trifluoroacetic acid (Halocarbon). […] After 72 hr of incubation cell viability was assessed as described below.\nIn order to pin-point the active fragment of the human HBB protein, the protein was cleaved to two fragments using cyanogen bromide (CNBr). […] Significance was evaluated using Student's t-test for each variant incubated with N- or C-terminal fragments of human HBB compared to incubation with control media (not shown)."}, "[6]": {"tested_on": "MCF-7 breast carcinoma cells", "assay": "Viability of cancerous cell lines, MCF-7", "settings": "MTS-based assay; FIG. 3E", "method": "as §2\nWhen incubated with the highest amount of HBB (100 μg), the viability of the following cell lines was inhibited: the breast cancer cell lines T47D and MCF-7, the prostate cancer cell line 22RVi, the cervical cancer cell line Hela, and the melanoma cell lines RALL and RKTJ."}, "[7]": {"settings": "HBB11p once a week for 8 weeks, data not shown"}}, "data": [{"substance": "ENFRLLGNVLVCVLA (listed as Homo sapiens) [HBB11p]", "values": [{"measurement": "influence on viability of MicroNB cells (in words)", "setting": "[1]; listed as Peptide number 11", "value": "significantly inhibited the viability"}, {"measurement": "influence on viability of MicroNB cells (in words)", "setting": "[1]; listed as peptide 11", "value": "even greater than that caused by HBB"}, {"measurement": "bone marrow metastasis versus PBS-treated mice", "setting": "[2]; [7]", "value": "significantly inhibited as well"}, {"measurement": "liver metastasis versus PBS-treated mice", "setting": "[2]; [7]", "value": "significantly inhibited as well"}, {"measurement": "spleen metastasis versus PBS-treated mice", "setting": "[2]; [7]", "value": "significantly inhibited as well"}, {"measurement": "lung metastasis versus PBS-treated mice", "setting": "[2]; HBB11p once a week for 8 weeks, real time PCR, FIG. 7D", "value": "significantly inhibited"}, {"measurement": "size of local tumors versus PBS-treated mice", "setting": "[2]; inhaled droplet of HBB11p once a week for 8 weeks", "value": "significantly smaller"}, {"measurement": "size of local tumors versus PBS-treated mice", "setting": "[2]; intravenous HBB11p once a week for 8 weeks", "value": "significantly smaller"}, {"measurement": "weight of local tumors of scrambled-Metox treated mice relative to Metox treated mice", "setting": "[3]; 70 days post inoculation, FIG. 8C, 8D", "value": "significantly higher"}, {"measurement": "metastatic load of MicroNB cells in lungs versus scrambled-Metox", "setting": "[3]; Real-Time PCR, FIG. 8E", "value": "significantly lower"}, {"measurement": "metastatic load of MicroNB cells in bone marrow versus scrambled-Metox", "setting": "[3]; Real-Time PCR, FIG. 8F", "value": "significantly lower"}, {"measurement": "local tumor volume, Metox versus scrambled-Metox treated mice", "setting": "[3]; twenty days after inoculation, more significant with time, FIG. 8B", "value": "a difference was apparent"}]}, {"substance": "HBB2: beta 2 subunit of mouse hemoglobin, SEQ ID NO:1; HPLC peak no. 4 of mouse lung-derived factors", "values": [{"measurement": "influence on viability of MicroNB cells (in words)", "setting": "[1]", "value": "inhibited cell viability"}, {"measurement": "influence on viability of MacroNB cells (in words)", "setting": "[4]", "value": "inhibited cell viability"}]}, {"substance": "HBA: alpha subunit of human hemoglobin, HPLC-separated from native human hemoglobin [reference compound]", "values": [{"measurement": "influence on viability of MicroNB cells (in words)", "setting": "[1]", "value": "did not influence cell viability"}, {"measurement": "influence on viability of MacroNB cells (in words)", "setting": "[4]", "value": "did not influence cell viability"}]}, {"substance": "C-terminal fragment: 91 amino acid C-terminal fragment of human HBB from CNBr cleavage, SEQ ID NO:4", "values": [{"measurement": "influence on neuroblastoma cell viability (in words)", "setting": "[5]", "value": "responsible for the inhibitory activity"}]}, {"substance": "N-terminal fragment: N-terminal fragment of human HBB from CNBr cleavage, SEQ ID NO:3", "values": [{"measurement": "influence on neuroblastoma cell viability (in words)", "setting": "[5]", "value": "exhibited an inhibitory effect however to a lesser extent"}]}, {"substance": "whole human hemoglobin protein: native human hemoglobin (Sigma), whole protein [reference compound]", "values": [{"measurement": "influence on viability of MCF-7 breast carcinoma cells (in words)", "setting": "[6]", "value": "inhibited cell viability as well but not to the same extent as HBB"}]}]}
